Test results reported in article PMC6178183, “Development of a HPLC-MS/MS Method to Determine 11 Bioactive Compounds in Tongmai Yangxin Pill and Application to a Pharmacokinetic Study in Rats” (Evidence-based Complementary and Alternative Medicine : eCAM, 2018).
“And” between values parts separate entries of the source, which are not always exact repeats. Equal entries are not always repeated.

What was measured:
[1] = set-up: method as in PMID 23608243; settings: rat dosed processed Radix polygoni multiflori; cited from earlier work
[2] = Stability of analytes in rat plasma QC samples under storage conditions; format: in vitro ADME; settings: n=6, gallic acid, ononin, schisandrin, stilbene glycoside, liquiritigenin, rhein, verbascoside; for Measured Concentration, auto-sampler for 12 h: prepared rat plasma samples; for Measured Concentration, -70°C for 14 days / Measured Concentration, room temperature for 6 h / Measured Concentration, three freeze-thaw cycles: rat plasma
Experimental: Quality control (QC) samples at three concentrations (low, medium, and high concentration) were made up of appropriate mixed standard solutions with blank blood sample as calibration solutions to meet the required concentrations. All the solutions were kept at 4°C.
The stability of analytes in plasma samples was determined by analyzing QC samples of three concentration levels at different conditions: stored at autosampler for 12 h, at room temperature for 6 h, under three freeze-thaw cycles and stored at -70°C for 14 days. All stability studies were measured in six replicates.

[3] = Pharmacokinetic study in rats after oral administration of TMYX extract (HPLC-MS/MS of plasma); format: in vivo, Sprague–Dawley rats; settings: rat plasma; for AUC(0-inf) / half-life / AUC / k el: male, Sprague-Dawley; for AUC(0-inf) / half-life / AUC / k el / C max1 / T max1 / C max2 / T max2: oral TMYX extract 8.3 g/kg single dose; for AUC(0-inf) / half-life / AUC / k el / C max1 / C max2 / T max2: n=6; for AUC: read-out: AUC (0-tn); for k el: read-out: K e (converted); for T max1: n=6, mean ± SD; for peaks in the mean plasma concentration-time profile: oral TMYX extract 8.3 g/kg; for C max2 / T max2: second peak
Experimental: The HPLC-MS/MS system consists of an Agilent 1200 high-performance liquid chromatography coupled with an Aglient 6430 series triple quadrupole mass spectrometer with an electrospray ionization (ESI) source. The chromatographic separation was achieved on a CORTECS C18 column (4.6 mm × 150 mm, 2.7 μm), and the column temperature was kept at 30°C. Mobile phases which consisted of 0.1% formic acid in water (A) and acetonitrile (B) were used in the following gradient elution method: 0-10 min, 10%-85% B; 10-13 min, 85%-95% B; 13-19 min, 95%-95% B. The flow rate was set at 0.3 mL/min, and the injection volume was 10 μL. All data were analyzed by Mass Hunter workstation software (Agilent Technologies, USA).
The mass spectrometer was carried out in both positive and negative ionization multiple-reaction monitoring (MRM) mode. The source parameters were as follows: the capillary voltage set at 300 V for positive ionization mode and -300 V for negative ionization mode, the drying gas temperature was 320°C, the flow was 11 L/min, and nebulizing gas pressure was 30 psi.
The plasma (100 μL) was spiked with 20 μL of methanol, 20 μL of the IS (icariin, 1 μg/mL), and 20 μL of formic acid and then vortex-mixed. The mixture was extracted with 800 μL of ethyl acetate by vortex mixing for 5 min at room temperature. After centrifugation at 14,000 rpm for 10 min, the supernatant was collected to a clean tube and evaporated to dryness under a nitrogen stream. The residue was reconstituted in 50 μL of 50% methanol, vortexed for 5 min, and centrifuged at 14,000 rpm for 10 min. Finally, 10 μL supernatant was injected into the LC-MS/MS system for analysis.
Male Sprague–Dawley rats (230-250 g) were obtained from Beijing HFK Experimental Animal Technology Co., Ltd. The rats were maintained under the control environmental conditions and they fasted for 12 h with free access to water before the experiments. TMYX extracts were dissolved in CMC-Na and administrated orally to rats at 8.3 g/kg. The blood samples (200 μL) were collected from the rat fossa orbitalis vein at 0, 0.03, 0.083, 0.17, 0.25, 0.5, 1, 2, 4, 6, 8, 10, 12, 24, 36, and 48 h after oral administration to heparinized tubes. And then the blood samples were centrifuged at 7,000 rpm for 10 min to get the plasma sample immediately. Finally, the plasma obtained was stored at −70°C until analysis. Pharmacokinetic parameters were calculated by the computer program “Drug and Statistics 2.0” (DAS 2.0) (Medical College of Wannan, China).

[4] = tested on: human umbilical vein endothelial cells; set-up: method as in doi:10.1039/C6RA19212B; settings: human umbilical vein endothelial cells in zebrafish; cited from earlier work
[5] = set-up: method as in PMID 25943824; settings: active ingredients of TMYX with high R values; cited from earlier work
[6] = set-up: method as in PMID 26771134; settings: rat plasma, oral Radix glycyrrhizae or combination of Radix glycyrrhizae and Ramulus cinnamomi; cited from earlier work
[7] = high QC: spiked 2000 ng/mL glycyrrhizic acid, 1000 liquiritin, 200 emodin, 100 isoliquiritigenin
[8] = low QC: spiked 20 ng/mL glycyrrhizic acid, 10 liquiritin, 2 emodin, 1 isoliquiritigenin
[9] = medium QC: spiked 200 ng/mL glycyrrhizic acid, 100 liquiritin, 20 emodin, 10 isoliquiritigenin

SMILES | Measured Concentration, auto-sampler for 12 h [2, 7] [ng/mL] | Measured Concentration, auto-sampler for 12 h [2, 8] [ng/mL] | Measured Concentration, auto-sampler for 12 h [2, 9] [ng/mL] | Measured Concentration, -70°C for 14 days [2, 7] [ng/mL] | Measured Concentration, room temperature for 6 h [2, 7] [ng/mL] | Measured Concentration, three freeze-thaw cycles [2, 7] [ng/mL] | Measured Concentration, -70°C for 14 days [2, 8] [ng/mL] | Measured Concentration, room temperature for 6 h [2, 8] [ng/mL] | Measured Concentration, three freeze-thaw cycles [2, 8] [ng/mL] | Measured Concentration, -70°C for 14 days [2, 9] [ng/mL] | Measured Concentration, room temperature for 6 h [2, 9] [ng/mL] | Measured Concentration, three freeze-thaw cycles [2, 9] [ng/mL] | AUC(0-inf) [3] [ng·h/mL] | half-life [3] [h] | AUC [3] [ng·h/mL] | k el [3] [s⁻¹] | C max1 [3] [ng/mL] | T max1 [3] | proliferation and angiogenesis [4] | antiinflammatory effects [5] | further results
Cc1cc(O)c2c(c1)C(=O)c1cc(O)cc(O)c1C2=O [emodin] | 200.50 ± 11.66 | 1.93 ± 0.02 | 19.88 ± 1.81 | 185.45 ± 0.98 | 207.49 ± 1.27 | 197.74 ± 5.65 | 1.86 ± 0.03 | 1.95 ± 0.05 | 2.00 ± 0.02 | 18.79 ± 0.18 | 21.14 ± 0.99 | 19.21 ± 0.33 | 561 ± 192 | 4.21 ± 2.63 | 476 ± 121 | 0.000108 | 88.0 ± 37.5 | 0.32 ± 0.14 h |  |  | peaks in plasma profile [1]: one peak
CC(C)=CCc1cc(-c2oc3cc(O)c(CC=C(C)C)c(O)c3c(=O)c2O)ccc1O [glyasperin A] |  |  |  |  |  |  |  |  |  |  |  |  |  |  |  |  |  |  | promote proliferation and angiogenesis |  | 
COc1c(CC=C(C)C)c(O)cc2oc(=O)c(-c3ccc(O)cc3O)cc12 [glycycoumarin] |  |  |  |  |  |  |  |  |  |  |  |  |  |  |  |  |  |  | promote proliferation and angiogenesis |  | 
CC1(C)[C@@H](O[C@H]2O[C@H](C(=O)O)[C@@H](O)[C@H](O)[C@H]2O[C@@H]2O[C@H](C(=O)O)[C@@H](O)[C@H](O)[C@H]2O)CC[C@]2(C)[C@H]3C(=O)C=C4[C@@H]5C[C@@](C)(C(=O)O)CC[C@]5(C)CC[C@@]4(C)[C@]3(C)CC[C@@H]12 [glycyrrhizic acid] | 1884.66 ± 9.26 | 19.25 ± 0.34 | 200.96 ± 3.93 | 1834.54 ± 29.34 | 2099.10 ± 8.92 | 1869.00 ± 42.55 | 18.77 ± 0.09 | 20.49 ± 0.79 | 19.30 ± 0.20 | 200.33 ± 2.98 | 203.22 ± 3.32 | 188.63 ± 3.57 | 17300 ± 11000 | 18.2 ± 9.61 | 12700 ± 5060 | 1.39e-05 | 351.7 ± 347.4 | 2.13 h and 2.13 ± 1.44 h |  | exert antiinflammatory effects in a dose-dependent manner | peaks in plasma concentration-time profile [6]: One peak; detection in vivo at 48 h ([3]; 48 h after oral TMYX extract 8.3 g/kg): can still be detected in vivo at 48 h; peaks in the mean plasma concentration-time profile [3]: double peaks; C max2 [3]: 476.1 ± 146.0 ng/mL; T max2 [3]: 17.67 h and 17.67 ± 10.31 h
CC(C)=CCc1c(O)ccc(-c2coc3cc(O)cc(O)c3c2=O)c1O [licoisoflavone A] |  |  |  |  |  |  |  |  |  |  |  |  |  |  |  |  |  |  | promote proliferation and angiogenesis |  | 
COc1cc2c(c(OC)c1CC=C(C)C)C(=O)[C@H](c1ccc(O)c(CC=C(C)C)c1O)CO2 [licorisoflavan A] |  |  |  |  |  |  |  |  |  |  |  |  |  |  |  |  |  |  | promote proliferation and angiogenesis |  | 
O=C1C[C@@H](c2ccc(O)cc2)Oc2cc(O)ccc21 [liquiritigenin] | 92.65 ± 0.68 | 0.87 ± 0.01 | 8.63 ± 0.23 | 91.88 ± 0.86 | 112.69 ± 1.30 | 92.59 ± 0.63 | 0.88 ± 0.02 | 0.87 ± 0.01 | 0.89 ± 0.02 | 9.26 ± 0.08 | 10.82 ± 0.58 | 8.99 ± 0.07 | 333 ± 142 | 12.7 ± 7.04 | 315 ± 130 | 0.000139 | 37.8 ± 24.1 | 0.20 h and 0.20 ± 0.07 h |  |  | peaks in plasma concentration-time profile [6]: One peak; peaks in the mean plasma concentration-time profile [3]: double peaks; C max2 [3]: 21.0 ± 15.3 ng/mL; T max2 [3]: 7.20 h and 7.20 ± 3.35 h
COc1cc2c(c(OC)c1OC)-c1c(cc(OC)c(OC)c1OC)C[C@](C)(O)[C@@H](C)C2 [schisandrin] | 196.02 ± 2.10 | 1.83 ± 0.02 | 18.35 ± 0.09 | 183.83 ± 1.00 | 194.61 ± 1.13 | 189.32 ± 1.74 | 1.77 ± 0.03 | 2.00 ± 0.04 | 1.71 ± 0.01 | 17.86 ± 0.20 | 21.15 ± 0.50 | 18.28 ± 0.23 | 473 ± 321 | 2.73 ± 1.54 | 411 ± 239 | 9.44e-05 | 92.6 ± 53.0 | 1.00 ± 0.92 h |  | exert antiinflammatory effects in a dose-dependent manner | 
OC[C@H]1O[C@@H](Oc2c(O)cc(O)cc2/C=C/c2ccc(O)cc2)[C@H](O)[C@@H](O)[C@@H]1O [stilbene glycoside] | 182.40 ± 1.23 | 1.89 ± 0.00 | 19.00 ± 0.64 | 203.34 ± 1.39 | 202.79 ± 12.80 | 200.45 ± 2.10 | 1.99 ± 0.01 | 1.82 ± 0.01 | 2.00 ± 0.03 | 20.01 ± 0.31 | 20.88 ± 1.19 | 19.87 ± 1.43 | 298 ± 185 | 1.99 ± 1.31 | 284 ± 189 | 0.000125 | 99.1 ± 27.1 | 0.50 ± 0.31 h |  | exert antiinflammatory effects in a dose-dependent manner | 
